According to ChEMBL document CHEMBL3525953, “In vitro cytochrome P450-mediated metabolism of exemestane” (Drug Metab Dispos, 2011):

Key:
Assay type in all cases: ADME
Cytochrome P450 3A4 = Cytochrome P450 3A4 (Homo sapiens, UniProt P08684); experiment: Drug metabolism assessed as human recombinant CYP3A4-mediated 6-Hydroxymethylexemestane formation rate per pmol of enzyme at 10 uM after 10 mins
Cytochrome P450 2C9 [1] = molecular target: T1, Cytochrome P450 2C9 (Homo sapiens, UniProt P11712); experiment: Drug metabolism assessed as human recombinant CYP2C9-mediated 6-Hydroxymethylexemestane formation rate per pmol of enzyme at 10 uM after 10 mins
Liver microsome [2] = experiment: Drug metabolism in human liver microsomes assessed as 6-hydroxymethylexemestane formation after 10 mins by Michaelis-Menten saturation curve analysis
Cytochrome P450 2C8 [3] = molecular target: T2, Cytochrome P450 2C8 (Homo sapiens, UniProt P10632); experiment: Drug metabolism assessed as human recombinant CYP2C8-mediated 6-Hydroxymethylexemestane formation rate per pmol of enzyme at 10 uM after 10 mins
T2 sequence (P10632 whole entry): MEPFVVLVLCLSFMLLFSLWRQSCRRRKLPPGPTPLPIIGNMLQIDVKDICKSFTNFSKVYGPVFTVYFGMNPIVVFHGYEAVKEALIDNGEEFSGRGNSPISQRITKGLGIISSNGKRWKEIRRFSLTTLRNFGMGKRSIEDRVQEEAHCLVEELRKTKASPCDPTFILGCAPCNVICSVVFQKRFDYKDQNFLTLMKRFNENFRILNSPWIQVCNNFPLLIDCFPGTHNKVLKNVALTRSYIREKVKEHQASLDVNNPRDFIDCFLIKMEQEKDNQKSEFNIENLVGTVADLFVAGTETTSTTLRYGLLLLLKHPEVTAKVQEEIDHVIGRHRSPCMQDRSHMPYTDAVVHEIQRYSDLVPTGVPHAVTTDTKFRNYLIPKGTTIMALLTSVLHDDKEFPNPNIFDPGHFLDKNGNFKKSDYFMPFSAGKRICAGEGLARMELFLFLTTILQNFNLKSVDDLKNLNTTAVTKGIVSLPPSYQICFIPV

Cytochrome P450 2B6 [4] = molecular target: T3, Cytochrome P450 2B6 (Homo sapiens, UniProt P20813); experiment: Drug metabolism assessed as human recombinant CYP2B6-mediated 6-Hydroxymethylexemestane formation at 10 uM after 10 mins by Michaelis-Menten saturation curve analysis; conditions: recombinant enzyme
T3 sequence (P20813 whole entry): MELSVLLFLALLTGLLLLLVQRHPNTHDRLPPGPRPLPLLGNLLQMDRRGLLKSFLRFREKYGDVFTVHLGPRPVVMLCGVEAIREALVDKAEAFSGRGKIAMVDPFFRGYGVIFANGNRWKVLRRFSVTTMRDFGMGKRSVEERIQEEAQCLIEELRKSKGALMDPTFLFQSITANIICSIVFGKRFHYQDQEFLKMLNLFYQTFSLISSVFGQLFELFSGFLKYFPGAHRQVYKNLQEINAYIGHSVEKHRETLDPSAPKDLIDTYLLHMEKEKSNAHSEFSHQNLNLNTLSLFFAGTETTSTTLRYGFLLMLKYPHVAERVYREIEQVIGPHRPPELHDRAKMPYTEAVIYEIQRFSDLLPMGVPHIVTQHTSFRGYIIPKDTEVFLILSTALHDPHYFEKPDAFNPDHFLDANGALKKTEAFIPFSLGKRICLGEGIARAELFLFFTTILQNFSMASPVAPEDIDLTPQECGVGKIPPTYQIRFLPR

Cytochrome P450 3A5 = Cytochrome P450 3A5 (Homo sapiens, UniProt P20815); experiment: Drug metabolism assessed as human recombinant CYP3A5-mediated 6-Hydroxymethylexemestane formation rate per pmol of enzyme at 10 uM after 10 mins
Cytochrome P450 2B6 [5] = molecular target: T3, Cytochrome P450 2B6; experiment: Drug metabolism assessed as human recombinant CYP2B6-mediated 6-Hydroxymethylexemestane formation rate per pmol of enzyme at 10 uM after 10 mins
Liver microsome [6] = experiment: Drug metabolism in human liver microsomes assessed as 6-hydroxymethylexemestane formation at 10 uM after 10 mins by LC-MS/MS analysis
Cytochrome P450 2C9 [7] = molecular target: T1, Cytochrome P450 2C9; experiment: Drug metabolism assessed as human recombinant CYP2C9-mediated 6-Hydroxymethylexemestane formation at 10 uM after 10 mins by Michaelis-Menten saturation curve analysis; conditions: recombinant enzyme
Cytochrome P450 1A1 = molecular target: T4, Cytochrome P450 1A1 (Homo sapiens, UniProt P04798); experiment: Drug metabolism assessed as human recombinant CYP1A1-mediated 6-Hydroxymethylexemestane formation rate per pmol of enzyme at 10 uM after 10 mins
T4 sequence (P04798 whole entry): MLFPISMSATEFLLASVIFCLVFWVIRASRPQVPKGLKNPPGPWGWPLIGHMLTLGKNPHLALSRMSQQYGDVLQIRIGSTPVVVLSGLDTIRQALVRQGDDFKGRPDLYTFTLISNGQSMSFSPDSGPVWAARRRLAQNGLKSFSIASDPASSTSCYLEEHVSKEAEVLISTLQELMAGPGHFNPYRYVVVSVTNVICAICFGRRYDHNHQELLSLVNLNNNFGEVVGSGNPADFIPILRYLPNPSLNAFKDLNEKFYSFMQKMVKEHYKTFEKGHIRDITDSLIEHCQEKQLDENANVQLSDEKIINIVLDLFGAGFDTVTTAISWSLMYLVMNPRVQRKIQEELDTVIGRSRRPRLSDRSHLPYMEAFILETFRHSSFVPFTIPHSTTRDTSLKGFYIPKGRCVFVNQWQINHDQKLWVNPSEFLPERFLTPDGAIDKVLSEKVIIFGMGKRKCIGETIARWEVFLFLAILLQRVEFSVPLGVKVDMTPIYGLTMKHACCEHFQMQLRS

Liver microsome [8] = experiment: Drug metabolism in human liver microsomes assessed as retention time treated with 300 uM of exemestane after 10 mins by HPLC with UV analysis
Cytochrome P450 2C19 [9] = molecular target: T5, Cytochrome P450 2C19 (Homo sapiens, UniProt P33261); experiment: Drug metabolism assessed as human recombinant CYP2C19-mediated 6-Hydroxymethylexemestane formation at 10 uM after 10 mins by Michaelis-Menten saturation curve analysis; conditions: recombinant enzyme
Cytochrome P450 2C19 [10] = molecular target: T5, Cytochrome P450 2C19; experiment: Drug metabolism assessed as human recombinant CYP2C19-mediated 6-Hydroxymethylexemestane formation rate per pmol of enzyme at 10 uM after 10 mins
Cytochrome P450 2C8 [11] = molecular target: T2, Cytochrome P450 2C8; experiment: Drug metabolism assessed as human recombinant CYP2C8-mediated 6-Hydroxymethylexemestane formation at 10 uM after 10 mins by Michaelis-Menten saturation curve analysis; conditions: recombinant enzyme
Liver microsome [12] = experiment: Drug metabolism in human liver microsomes assessed as retention time at 300 uM after 10 mins by HPLC with UV analysis
Cytochrome P450 2E1 = Cytochrome P450 2E1 (Homo sapiens, UniProt P05181); experiment: Drug metabolism assessed as human recombinant CYP2E1-mediated 17-hydroexemestane and 6-Hydroxymethylexemestane formation assessed as inhibition of metabolite formation at 10 uM after 10 mins by Michaelis-Menten saturation curve analysis in presence of 50 uM diethylthiocarbamate; design: interact cpd dose 50 uM; conditions: recombinant enzyme
Cytochrome P450 2B6 [13] = molecular target: T3, Cytochrome P450 2B6; experiment: Drug metabolism assessed as human recombinant CYP2B6-mediated 17-hydroexemestane and 6-Hydroxymethylexemestane formation assessed as inhibition of metabolite formation at 10 uM after 10 mins by Michaelis-Menten saturation curve analysis in presence of 5 uM thioTEPA; design: interact cpd dose 5 uM; conditions: recombinant enzyme
Liver microsome [14] = experiment: Drug metabolism in human liver microsomes assessed as retention time at 50 uM after 10 mins by HPLC with UV analysis

T5 sequence (P33261 whole entry): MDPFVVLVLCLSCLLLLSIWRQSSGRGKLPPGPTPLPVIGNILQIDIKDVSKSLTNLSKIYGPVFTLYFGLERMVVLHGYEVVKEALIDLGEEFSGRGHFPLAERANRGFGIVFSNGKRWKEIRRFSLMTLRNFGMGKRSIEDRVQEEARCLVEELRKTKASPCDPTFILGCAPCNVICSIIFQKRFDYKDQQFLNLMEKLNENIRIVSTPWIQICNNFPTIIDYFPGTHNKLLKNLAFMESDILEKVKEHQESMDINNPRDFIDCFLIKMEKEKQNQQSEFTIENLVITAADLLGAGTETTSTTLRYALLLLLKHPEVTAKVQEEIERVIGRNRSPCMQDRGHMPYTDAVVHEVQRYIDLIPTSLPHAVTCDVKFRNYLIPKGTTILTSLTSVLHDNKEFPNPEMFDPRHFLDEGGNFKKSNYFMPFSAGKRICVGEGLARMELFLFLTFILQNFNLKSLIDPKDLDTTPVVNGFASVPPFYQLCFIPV
T1 sequence (P11712 whole entry): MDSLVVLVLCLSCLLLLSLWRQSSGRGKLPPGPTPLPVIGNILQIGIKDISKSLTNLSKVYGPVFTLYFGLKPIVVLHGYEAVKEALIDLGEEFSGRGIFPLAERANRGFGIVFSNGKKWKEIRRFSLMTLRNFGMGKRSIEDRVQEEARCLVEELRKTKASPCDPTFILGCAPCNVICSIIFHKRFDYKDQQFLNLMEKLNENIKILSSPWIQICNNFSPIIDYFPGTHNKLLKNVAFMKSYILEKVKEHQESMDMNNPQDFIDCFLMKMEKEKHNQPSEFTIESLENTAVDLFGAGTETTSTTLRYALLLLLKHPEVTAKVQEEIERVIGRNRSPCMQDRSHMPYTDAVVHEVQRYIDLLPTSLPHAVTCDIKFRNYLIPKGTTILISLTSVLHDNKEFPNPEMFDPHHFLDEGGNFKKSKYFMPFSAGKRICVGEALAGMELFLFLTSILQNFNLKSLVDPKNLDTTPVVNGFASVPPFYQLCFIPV
Chain of Cytochrome P450 3A4 (P08684 whole entry): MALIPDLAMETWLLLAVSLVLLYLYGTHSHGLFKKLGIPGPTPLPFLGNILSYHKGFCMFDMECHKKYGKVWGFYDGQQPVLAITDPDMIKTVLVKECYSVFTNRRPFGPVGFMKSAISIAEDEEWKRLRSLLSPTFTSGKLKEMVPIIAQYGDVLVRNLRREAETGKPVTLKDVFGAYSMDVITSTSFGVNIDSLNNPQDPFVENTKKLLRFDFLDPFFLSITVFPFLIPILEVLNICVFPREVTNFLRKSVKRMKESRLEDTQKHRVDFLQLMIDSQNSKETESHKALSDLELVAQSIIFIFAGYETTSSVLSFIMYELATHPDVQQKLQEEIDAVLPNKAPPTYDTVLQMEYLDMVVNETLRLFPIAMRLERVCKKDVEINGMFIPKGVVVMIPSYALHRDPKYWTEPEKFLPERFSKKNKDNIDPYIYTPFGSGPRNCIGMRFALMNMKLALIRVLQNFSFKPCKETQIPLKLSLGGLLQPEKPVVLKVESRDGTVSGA
Chain of Cytochrome P450 2E1 (P05181 whole entry): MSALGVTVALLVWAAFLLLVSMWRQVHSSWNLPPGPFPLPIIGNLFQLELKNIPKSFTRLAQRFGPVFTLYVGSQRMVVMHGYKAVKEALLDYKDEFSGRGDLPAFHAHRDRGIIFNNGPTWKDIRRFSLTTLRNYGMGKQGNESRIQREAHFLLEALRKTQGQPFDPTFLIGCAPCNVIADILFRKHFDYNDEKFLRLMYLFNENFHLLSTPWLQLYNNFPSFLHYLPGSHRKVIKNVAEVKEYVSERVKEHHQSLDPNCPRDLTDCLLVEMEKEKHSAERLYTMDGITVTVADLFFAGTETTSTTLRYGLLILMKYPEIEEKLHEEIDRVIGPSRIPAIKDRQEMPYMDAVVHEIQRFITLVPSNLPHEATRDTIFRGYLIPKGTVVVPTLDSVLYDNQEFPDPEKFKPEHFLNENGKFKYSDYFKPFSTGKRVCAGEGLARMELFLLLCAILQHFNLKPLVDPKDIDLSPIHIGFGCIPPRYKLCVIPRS
Chain of Cytochrome P450 3A5 (P20815 whole entry): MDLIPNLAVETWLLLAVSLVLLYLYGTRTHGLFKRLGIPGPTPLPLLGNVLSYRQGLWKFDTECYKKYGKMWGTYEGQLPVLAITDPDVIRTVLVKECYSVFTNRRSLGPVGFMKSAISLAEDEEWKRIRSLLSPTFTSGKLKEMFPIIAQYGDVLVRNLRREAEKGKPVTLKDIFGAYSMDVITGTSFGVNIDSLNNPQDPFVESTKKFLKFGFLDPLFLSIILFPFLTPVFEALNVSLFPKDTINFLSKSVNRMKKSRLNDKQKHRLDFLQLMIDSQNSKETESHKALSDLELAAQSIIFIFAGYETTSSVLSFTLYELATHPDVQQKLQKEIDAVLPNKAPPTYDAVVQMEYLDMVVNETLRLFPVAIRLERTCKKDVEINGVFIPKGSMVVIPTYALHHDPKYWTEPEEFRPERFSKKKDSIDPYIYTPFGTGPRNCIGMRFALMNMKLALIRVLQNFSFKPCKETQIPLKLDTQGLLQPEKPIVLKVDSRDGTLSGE

**Q.** `C[C@]12C=CC(=O)C=C1C(CO)=C[C@@H]1[C@@H]2CC[C@]2(C)C(=O)CC[C@@H]12` was tested. Which Drug metabolism (Cytochrome P450 3A4) did it give?
**A.** 0.42 pmol/min

**Q.** And the Drug metabolism (Cytochrome P450 2C9 [1])?
**A.** metabolite_detected

**Q.** And the “Vmax(app)” value (Liver microsome [2])?
**A.** 781.15 pmol/mg/min

**Q.** And the Km (Liver microsome [2]; read-out: Km(app))?
**A.** 37.1 µM

**Q.** What about the Drug metabolism (Cytochrome P450 2C8 [3]) of the same molecule?
**A.** metabolite_detected

**Q.** What about the “Vmax(app)” value (Cytochrome P450 2B6 [4]) of the same molecule?
**A.** 1.93 pmol/mg/min

**Q.** And the Km (Cytochrome P450 2B6 [4]; read-out: Km(app))?
**A.** 9 µM

**Q.** What about the Drug metabolism (Cytochrome P450 3A5) of the same molecule?
**A.** 0.3 pmol/min

**Q.** What about the Drug metabolism (Cytochrome P450 2B6 [5]) of the same molecule?
**A.** 0.1 pmol/min

**Q.** What about the “Vmax(app)” value (Liver microsome [6]) of the same molecule?
**A.** 200.47 pmol/mg/min

**Q.** What about the Drug metabolism (Cytochrome P450 2C9 [7]) of the same molecule?
**A.** metabolite_detected

**Q.** And the Drug metabolism (Cytochrome P450 1A1)?
**A.** metabolite_detected

**Q.** What about the Retention_time (Liver microsome [8]) of the same molecule?
**A.** 6.4 min

**Q.** And the Drug metabolism (Cytochrome P450 2C19 [9])?
**A.** metabolite_detected

**Q.** What about the Drug metabolism (Cytochrome P450 2C19 [10]) of the same molecule?
**A.** metabolite_detected

**Q.** What about the Drug metabolism (Cytochrome P450 2C8 [11]) of the same molecule?
**A.** metabolite_detected

**Q.** `C=C1C[C@@H]2[C@H](CC[C@]3(C)C(=O)CC[C@@H]23)[C@@]2(C)C=CC(=O)C=C12` [EXEMESTANE] was tested. Which Retention_time (Liver microsome [12]) did it give?
**A.** 15.6 min

**Q.** And the “inhibition (INH)” value (Cytochrome P450 2E1)?
**A.** < 20%

**Q.** What about the “inhibition (INH)” value (Cytochrome P450 2B6 [13]) of the same molecule?
**A.** < 20%

**Q.** `C#CC1(O)CC[C@H]2[C@@H]3CCC4=CC(=O)CC[C@@H]4[C@H]3CC[C@@]21CC` (stereo not given in full) [NORGESTREL] was tested. Which Retention_time (Liver microsome [14]) did it give?
**A.** 20.2 min
